Measured values: US7872014B2, “Anaplastic lymphoma kinase modulators and methods of use” (Exelixis, Inc., priority 2003, dated 2011)

biological target: T1, ALK (baculovirus expressed human ALK kinase domain F1098-K1410) (Homo sapiens, UniProt Q9UM73); assay: Luciferase-Coupled Chemiluminescent Kinase assay (LCCA), ALK biochemical activity; settings: inhibition of ALK; mean values; 1 μM ATP, 4 μM poly-AEKY, 12 nM ALK, 2 hours ambient temperature
T1 construct: baculovirus expressed human ALK kinase domain F1098-K1410; made in house
Outline: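 Luciferase-coupled readout of ATP remaining after reaction of 12 nM ALK kinase domain with 1 μM ATP and 4 μM poly-AEKY, Tris-HCl pH 7.5 buffer with MgCl2 and MnCl2. Incubated 2 h at ambient temperature; inhibition derived from ATP consumption across serial compound dilutions.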

T1 sequence (Q9UM73 1098-1410): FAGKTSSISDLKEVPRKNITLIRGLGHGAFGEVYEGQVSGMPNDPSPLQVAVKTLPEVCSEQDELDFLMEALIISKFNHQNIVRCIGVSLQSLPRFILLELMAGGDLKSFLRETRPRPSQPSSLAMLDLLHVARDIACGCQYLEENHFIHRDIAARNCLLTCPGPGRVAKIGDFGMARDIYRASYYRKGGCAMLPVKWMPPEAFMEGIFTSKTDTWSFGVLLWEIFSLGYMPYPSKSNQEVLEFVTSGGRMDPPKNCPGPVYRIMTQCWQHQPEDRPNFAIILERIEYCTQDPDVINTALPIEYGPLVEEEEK

Row | Compound | IC50 [nM]
1 | CCN(CC)CCOc1cc(F)c2c(-c3ccc(O)c(Cl)c3)nc3[nH]nc(C)c3c2c1OC [Example 219, 2-chloro-4-[8-{[2-(diethylamino)ethyl]oxy}-6-fluoro-1-methyl-9-(methyloxy)-3H-pyrazolo[3,4-c]isoquinolin-5-yl]phenol] | ≤ 99
2 | COc1c(OCCN2CCCC2)cc(F)c2c(-c3ccc(Cl)c(O)c3)nc3[nH]nc(C)c3c12 [Example 220, 2-chloro-5-{6-fluoro-1-methyl-9-(methyloxy)-8-[(2-pyrrolidin-1-ylethyl)oxy]-3H-pyrazolo[3,4-c]isoquinolin-5-yl}phenol] | ≤ 99
3 | Cc1n[nH]c2nc(-c3cn(C)c(=N)s3)c3c(F)cc(O)c(F)c3c12 [Example 221, 6,9-difluoro-5-(2-imino-3-methyl-2,3-dihydro-1,3-thiazol-5-yl)-1-methyl-3H-pyrazolo[3,4-c]isoquinolin-8-ol] | 1000 to 2000
4 | COc1c(OC2CC3CCC(C2)N3C)cc(F)c2c(-c3ccc(O)c(Cl)c3)nc3[nH]nc(C)c3c12 (centres unmarked) [Example 223, 2-chloro-4-[6-fluoro-1-methyl-8-[(8-methyl-8-azabicyclo[3.2.1]oct-3-yl)oxy]-9-(methyloxy)-3H-pyrazolo[3,4-c]isoquinolin-5-yl]phenol] | ≤ 99
5 | COc1c(OCCCN2CCCC2)cc(F)c2c(-c3ccc(O)c(Cl)c3)nc3[nH]nc(C)c3c12 [Example 224, 2-chloro-4-{6-fluoro-1-methyl-9-(methyloxy)-8-[(3-pyrrolidin-1-ylpropyl)oxy]-3H-pyrazolo[3,4-c]isoquinolin-5-yl}phenol] | ≤ 99
6 | COc1c(OCCCN2CCCCC2)cc(F)c2c(-c3ccc(O)c(Cl)c3)nc3[nH]nc(C)c3c12 [Example 225, 2-chloro-4-{6-fluoro-1-methyl-9-(methyloxy)-8-[(3-piperidin-1-ylpropyl)oxy]-3H-pyrazolo[3,4-c]isoquinolin-5-yl}phenol] | ≤ 99
7 | COc1c(OCCCN2CCOCC2)cc(F)c2c(-c3ccc(O)c(Cl)c3)nc3[nH]nc(C)c3c12 [Example 226, 2-chloro-4-{6-fluoro-1-methyl-9-(methyloxy)-8-[(3-morpholin-4-ylpropyl)oxy]-3H-pyrazolo[3,4-c]isoquinolin-5-yl}phenol] | ≤ 99
8 | COc1c(OCCN(C)CCN(C)C)cc(F)c2c(-c3ccc(O)c(Cl)c3)nc3[nH]nc(C)c3c12 [Example 227, 2-chloro-4-[8-({2-[[2-(dimethylamino)ethyl](methyl)amino]ethyl}oxy)-6-fluoro-1-methyl-9-(methyloxy)-3H-pyrazolo[3,4-c]isoquinolin-5-yl]phenol] | ≤ 99
9 | CCN(CC)CCN(C)CCOc1cc(F)c2c(-c3ccc(O)c(Cl)c3)nc3[nH]nc(C)c3c2c1OC [Example 228, 2-chloro-4-[8-({2-[[2-(diethylamino)ethyl](methyl)amino]ethyl}oxy)-6-fluoro-1-methyl-9-(methyloxy)-3H-pyrazolo[3,4-c]isoquinolin-5-yl]phenol] | ≤ 99
10 | CCN(CCOc1cc(F)c2c(-c3ccc(O)c(Cl)c3)nc3[nH]nc(C)c3c2c1OC)CCN(C)C [Example 229, 2-chloro-4-[8-({2-[[2-(dimethylamino)ethyl](ethyl)amino]ethyl}oxy)-6-fluoro-1-methyl-9-(methyloxy)-3H-pyrazolo[3,4-c]isoquinolin-5-yl]phenol] | ≤ 99
11 | COc1c(OCCN(CCCN(C)C)CCCN(C)C)cc(F)c2c(-c3ccc(O)c(Cl)c3)nc3[nH]nc(C)c3c12 [Example 230, 4-[8-[(2-{bis[3-(dimethylamino)propyl]amino}ethyl)oxy]-6-fluoro-1-methyl-9-(methyloxy)-3H-pyrazolo[3,4-c]isoquinolin-5-yl]-2-chlorophenol] | ≤ 99
12 | COc1c(OCCN(C)C2CCN(C)C2)cc(F)c2c(-c3ccc(O)c(Cl)c3)nc3[nH]nc(C)c3c12 (centres unmarked) [Example 231, 2-chloro-4-[6-fluoro-1-methyl-8-({2-[methyl(1-methylpyrrolidin-3-yl)amino]ethyl}oxy)-9-(methyloxy)-3H-pyrazolo[3,4-c]isoquinolin-5-yl]phenol] | ≤ 99
13 | COC[C@@H]1CCCN1CCOc1cc(F)c2c(-c3ccc(O)c(Cl)c3)nc3[nH]nc(C)c3c2c1OC [Example 232, 2-chloro-4-{6-fluoro-1-methyl-9-(methyloxy)-8-[(2-{(2S)-2-[(methyloxy)methyl]pyrrolidin-1-yl}ethyl)oxy]-3H-pyrazolo[3,4-c]isoquinolin-5-yl}phenol] | ≤ 99
14 | COc1c(OCCN2CCC(N3CCCC3)CC2)cc(F)c2c(-c3ccc(O)c(Cl)c3)nc3[nH]nc(C)c3c12 [Example 233, 2-chloro-4-(6-fluoro-1-methyl-9-(methyloxy)-8-{[2-(4-pyrrolidin-1-ylpiperidin-1-yl)ethyl]oxy}-3H-pyrazolo[3,4-c]isoquinolin-5-yl)phenol] | ≤ 99
15 | COc1c(OCCN2CCN(C3CCCCC3)CC2)cc(F)c2c(-c3ccc(O)c(Cl)c3)nc3[nH]nc(C)c3c12 [Example 234, 2-chloro-4-[8-{[2-(4-cyclohexylpiperazin-1-yl)ethyl]oxy}-6-fluoro-1-methyl-9-(methyloxy)-3H-pyrazolo[3,4-c]isoquinolin-5-yl]phenol] | ≤ 99
16 | COc1c(OCCN2CCN(CC(=O)NC(C)C)CC2)cc(F)c2c(-c3ccc(O)c(Cl)c3)nc3[nH]nc(C)c3c12 [Example 235, 2-[4-(2-{[5-(3-chloro-4-hydroxyphenyl)-6-fluoro-1-methyl-9-(methyloxy)-3H-pyrazolo[3,4-c]isoquinolin-8-yl]oxy}ethyl)piperazin-1-yl]-N-(1-methylethyl)acetamide] | ≤ 99
17 | COc1c(OCCN2CCC(N3CCCCC3)CC2)cc(F)c2c(-c3ccc(O)c(Cl)c3)nc3[nH]nc(C)c3c12 [Example 236, 4-[8-{[2-(1,4′-bipiperidin-1′-yl)ethyl]oxy}-6-fluoro-1-methyl-9-(methyloxy)-3H-pyrazolo[3,4-c]isoquinolin-5-yl]-2-chlorophenol] | ≤ 99
18 | COc1c(OCCN2CCCN(C)CC2)cc(F)c2c(-c3ccc(O)c(Cl)c3)nc3[nH]nc(C)c3c12 [Example 237, 2-chloro-4-[6-fluoro-1-methyl-8-{[2-(4-methyl-1,4-diazepan-1-yl)ethyl]oxy}-9-(methyloxy)-3H-pyrazolo[3,4-c]isoquinolin-5-yl]phenol] | ≤ 99
19 | COc1c(OCCN2CCN(c3ccccn3)CC2)cc(F)c2c(-c3ccc(O)c(Cl)c3)nc3[nH]nc(C)c3c12 [Example 238, 2-chloro-4-(6-fluoro-1-methyl-9-(methyloxy)-8-{[2-(4-pyridin-2-ylpiperazin-1-yl)ethyl]oxy}-3H-pyrazolo[3,4-c]isoquinolin-5-yl)phenol] | ≤ 99
20 | COc1c(OCCN2CC(C)OC(C)C2)cc(F)c2c(-c3ccc(O)c(Cl)c3)nc3[nH]nc(C)c3c12 (centres unmarked) [Example 239, 2-chloro-4-[8-{[2-(2,6-dimethylmorpholin-4-yl)ethyl]oxy}-6-fluoro-1-methyl-9-(methyloxy)-3H-pyrazolo[3,4-c]isoquinolin-5-yl]phenol] | ≤ 99
21 | COc1c(OCCN2CCSCC2)cc(F)c2c(-c3ccc(O)c(Cl)c3)nc3[nH]nc(C)c3c12 [Example 240, 2-chloro-4-{6-fluoro-1-methyl-9-(methyloxy)-8-[(2-thiomorpholin-4-ylethyl)oxy]-3H-pyrazolo[3,4-c]isoquinolin-5-yl}phenol] | ≤ 99
22 | COc1c(OCCN2C(C)CCCC2C)cc(F)c2c(-c3ccc(O)c(Cl)c3)nc3[nH]nc(C)c3c12 (centres unmarked) [Example 241, 2-chloro-4-[8-{[2-(2,6-dimethylpiperidin-1-yl)ethyl]oxy}-6-fluoro-1-methyl-9-(methyloxy)-3H-pyrazolo[3,4-c]isoquinolin-5-yl]phenol] | ≤ 99
23 | COc1c(OCCN2CCCC3CCCCC32)cc(F)c2c(-c3ccc(O)c(Cl)c3)nc3[nH]nc(C)c3c12 (centres unmarked) [Example 242, 2-chloro-4-(6-fluoro-1-methyl-9-(methyloxy)-8-{[2-(octahydroquinolin-1(2H)-yl)ethyl]oxy}-3H-pyrazolo[3,4-c]isoquinolin-5-yl)phenol] | ≤ 99
24 | COc1c(OCCN(C(C)C)C(C)C)cc(F)c2c(-c3ccc(O)c(Cl)c3)nc3[nH]nc(C)c3c12 [Example 243, 4-[8-({2-[bis(1-methylethyl)amino]ethyl}oxy)-6-fluoro-1-methyl-9-(methyloxy)-3H-pyrazolo[3,4-c]isoquinolin-5-yl]-2-chlorophenol] | ≤ 99
25 | COCCN(CCOC)CCOc1cc(F)c2c(-c3ccc(O)c(Cl)c3)nc3[nH]nc(C)c3c2c1OC [Example 244, 4-[8-[(2-{bis[2-(methyloxy)ethyl]amino}ethyl)oxy]-6-fluoro-1-methyl-9-(methyloxy)-3H-pyrazolo[3,4-c]isoquinolin-5-yl]-2-chlorophenol] | ≤ 99
26 | COc1c(OCCN2CCCCC2)cc(F)c2c(-c3ccc(O)c(Cl)c3)nc3[nH]nc(C)c3c12 [Example 245, 2-chloro-4-{6-fluoro-1-methyl-9-(methyloxy)-8-[(2-piperidin-1-ylethyl)oxy]-3H-pyrazolo[3,4-c]isoquinolin-5-yl}phenol] | ≤ 99
